Here are results for 32 molecules from patent US8598202B2, “Aryl-hydroxyethylamino-pyrimidines and triazines as modulators of fatty acid amide hydrolase” (Janssen Pharmaceutica NV, priority 2008, dated 2013).

SMILES strings stand for the structures. Where a name gives a salt, the structure may show the parent alone. A value given as a limit tells only on which side of the number the result lay.

The target in one test is T1, FAAH (Homo sapiens, UniProt O00519).
T1 sequence (O00519 1-579): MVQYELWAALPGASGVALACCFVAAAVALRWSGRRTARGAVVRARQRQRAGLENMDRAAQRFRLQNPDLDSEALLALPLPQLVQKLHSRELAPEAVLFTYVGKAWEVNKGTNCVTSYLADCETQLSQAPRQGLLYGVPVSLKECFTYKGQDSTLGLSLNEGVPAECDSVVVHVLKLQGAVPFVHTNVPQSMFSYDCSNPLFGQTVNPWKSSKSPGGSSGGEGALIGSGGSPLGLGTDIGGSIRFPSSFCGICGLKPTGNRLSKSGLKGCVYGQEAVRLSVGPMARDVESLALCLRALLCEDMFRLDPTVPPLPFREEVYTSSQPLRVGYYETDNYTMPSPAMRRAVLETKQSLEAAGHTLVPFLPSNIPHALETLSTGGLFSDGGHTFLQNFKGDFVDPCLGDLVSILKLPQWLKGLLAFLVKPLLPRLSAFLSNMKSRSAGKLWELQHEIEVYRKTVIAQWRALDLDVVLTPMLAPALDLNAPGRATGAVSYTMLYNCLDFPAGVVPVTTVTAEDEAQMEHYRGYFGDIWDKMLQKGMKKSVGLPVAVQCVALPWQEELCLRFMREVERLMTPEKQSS
Kind of test: Assay Method 1: FAAH assay, 3H-anandamide hydrolysis in homogenate of T84 cells or SK-N-MC cells transfected with human FAAH.
Details: not given
One may read the IC50 as the concentration needed to halve the response being measured. Take `OC(CNc1cc(-c2c(C(F)(F)F)cccc2C(F)(F)F)ncn1)c1ccccc1` (stereo not shown) [CE1, 2-[6-(2,6-Bis-trifluoromethyl-phenyl)-pyrimidin-4-ylamino]-1-phenyl-ethanol, reference compound]: the IC50 is > 10000 nM. `OC(CNc1cc(-c2cccc(Cl)c2)ncn1)c1ccccc1` (stereo not shown) [Example 9, 2-{[6-(3-Chlorophenyl)pyrimidin-4-yl]amino}-1-Phenylethanol] registered an IC50 of 467 nM. The molecule `OC(CNc1cc(-c2ccc(Oc3ccccc3)cc2)ncn1)c1ccccc1` (stereo not shown) [Example 13, 1-Phenyl-2-({6-[4-(phenyloxy)phenyl]pyrimidin-4-yl}amino)ethanol] returned an IC50 of 35 nM.

The molecule `O=Cc1cccc(-c2cc(NC[C@H](O)c3ccccc3)ncn2)c1` [Example 23, 3-(6-{[(2R)-2-Hydroxy-2-phenylethyl]amino}pyrimidin-4-yl)benzaldehyde] showed an IC50 of 5000 nM.

`O[C@@H](CNc1cc(-c2cccc(OCC(F)(F)F)c2)ncn1)c1ccccc1` [Example 25, (1R)-1-Phenyl-2-[(6-{3-[(2,2,2-trifluoroethyl)oxy]phenyl}pyrimidin-4-yl)amino]ethanol] yielded an IC50 of 390 nM. Still for that read-out and setting: for `CCCCOc1ccc(-c2cc(NC[C@H](O)c3ccccc3)ncn2)cc1` [Example 34, (1R)-2-{[6-(4-Butoxyphenyl)pyrimidin-4-yl]amino}-1-phenylethanol trifluoroacetic acid salt] the value was 500 nM.

For `Cc1cc(-c2cc(NC[C@H](O)c3ccccc3)ncn2)cc(C)c1OC(C)C` [Example 52, (1R)-2-({6-[3,5-Dimethyl-4-(1-methylethoxy)phenyl]pyrimidin-4-yl}amino)-1-phenylethanol trifluoroacetic acid salt], 1400 nM corresponded to half-maximal inhibition (IC50).

`O=S(=O)(NC1CC1)c1ccc(-c2cc(NC[C@H](O)c3ccccc3)ncn2)cc1` [Example 67, N-Cyclopropyl-4-(6-{[(2R)-2-hydroxy-2-phenylethyl]amino}pyrimidin-4-yl)benzenesulfonamide] displayed a 50% inhibitory concentration (IC50) of 20 nM. As for `O[C@@H](CNc1cc(-c2cnn(Cc3ccccc3)c2)ncn1)c1ccccc1` [Example 74, (1R)-2-{[6-(1-Benzyl-1H-pyrazol-4-yl)pyrimidin-4-yl]amino}-1-phenylethanol], 101 nM corresponded to half-maximal inhibition (IC50). For the molecule `CCOc1cccc(-c2cc(NC[C@H](O)c3ccccc3)ncn2)c1` [Example 97, (1R)-2-{[6-(3-Ethoxyphenyl)pyrimidin-4-yl]amino}-1-phenylethanol], half-maximal inhibition (IC50) required 580 nM.

Consider `CCCOc1cccc(-c2cc(NC[C@H](O)c3ccccc3)ncn2)c1` [Example 98, (1R)-1-Phenyl-2-{[6-(3-propoxyphenyl)pyrimidin-4-yl]amino}ethanol], for which the IC50 was 850 nM. The same measure, in the same setting: for `Oc1ccc(C(O)CNc2cc(-c3ccc(OC(F)(F)F)cc3)ncn2)cc1` (stereo not shown) [Example 110, 4-{1-Hydroxy-2-[(6-{4-[(trifluoromethyl)oxy]phenyl}pyrimidin-4-yl)amino]ethyl}phenol] the value was 5000 nM; for `OC(CNc1cc(-c2ccc(OC(F)(F)F)cc2)ncn1)c1ccccn1` (stereo not shown) [Example 123, 1-Pyridin-2-yl-2-[(6-{4-[(trifluoromethyl)oxy]phenyl}pyrimidin-4-yl)amino]ethanol], 700 nM; for `CS(=O)(=O)c1nc(NC[C@H](O)c2ccccc2)cc(-c2ccc(C(F)(F)F)c(Cl)c2)n1` [Example 138, (1R)-2-({6-[3-Chloro-4-(trifluoromethyl)phenyl]-2-(methylsulfonyl)pyrimidin-4-yl}amino)-1-phenylethanol], 371 nM. `C[S+]([O-])c1nc(NC[C@H](O)c2ccccc2)cc(-c2ccc(C(F)(F)F)c(Cl)c2)n1` (stereo partly drawn) [Example 139, (1R)-2-({6-[3-Chloro-4-(trifluoromethyl)phenyl]-2-(methylsulfinyl)pyrimidin-4-yl}amino)-1-phenylethanol] registered a concentration for half-maximal inhibition (IC50) of 2000 nM.

As to `COc1ccc(-c2cc(NCC(O)c3ccccc3)ncn2)cc1` (stereo not shown) [Example 147, 2-({6-[4-(Methyloxy)phenyl]pyrimidin-4-yl}amino)-1-phenylethanol], 205 nM corresponded to half-maximal inhibition (IC50). In the case of `Cc1cccc(-c2cc(NCC(O)c3ccccc3)ncn2)c1` (stereo not shown) [Example 148, 2-{[6-(3-Methylphenyl)pyrimidin-4-yl]amino}-1-phenylethanol], it took 3000 nM to reach half-maximal inhibition (IC50). With `OC(CNc1cc(-c2cccc(OC(F)(F)F)c2)ncn1)c1ccccc1` (stereo not shown) [Example 149, 1-Phenyl-2-[(6-{3-[(trifluoromethyl)oxy]phenyl}pyrimidin-4-yl)amino]ethanol], the IC50 is 412 nM. The same measure, in the same setting: the value for `COc1cc(OC(F)(F)F)ccc1-c1cc(NC[C@H](O)c2ccccc2)ncn1` [Example 153, (1R)-2-({6-[2-Methoxy-4-(trifluoromethoxy)phenyl]pyrimidin-4-yl}amino)-1-phenylethanol trifluoroacetic acid salt] was 303 nM; that for `CCOc1ccc(-c2cc(NC[C@H](O)c3ccccc3)ncn2)c(C)c1` [Example 154, (1R)-2-{[6-(4-Ethoxy-2-methylphenyl)pyrimidin-4-yl]amino}-1-phenylethanol trifluoroacetic acid salt] was 65 nM. The same measure, in the same setting: the value for `CC(O)(CNc1cc(-c2ccc(C(F)(F)F)c(Cl)c2)ncn1)c1ccccc1` (stereo not shown) [Example 166, 1-({6-[3-Chloro-4-(trifluoromethyl)phenyl]pyrimidin-4-yl}amino)-2-Phenylpropan-2-ol] was 3000 nM; that for `COc1ccc(-c2cc(NCC(O)c3ccccc3)ncn2)cc1OC` (stereo not shown) [Example 229, 2-[6-(3,4-Dimethoxy-phenyl)-pyrimidin-4-ylamino]-1-phenyl-ethanol] was 408 nM; that for `Nc1cccc(-c2cc(NCC(O)c3ccccc3)ncn2)c1` (stereo not shown) [Example 240, 2-[6-(3-Amino-phenyl)-pyrimidin-4-ylamino]-1-phenyl-ethanol] was > 10000 nM. For the molecule `OC(CNc1cc(-c2ccccc2)ncn1)c1ccccc1` (stereo not shown) [Example 243, 1-Phenyl-2-(6-phenyl-pyrimidin-4-ylamino)-ethanol], the IC50 is > 10000 nM.

The same test, now with this note: read-out: Assay 1 IC50; Table 2, Comparative Examples; human FAAH.
For `CC(=O)Nc1cccc(-c2cc(NCC(O)c3ccccc3)ncn2)c1` (stereo not shown) [CE2, N-{3-[6-(2-Hydroxy-2-phenyl-ethylamino)-pyrimidin-4-yl]-phenyl}-acetamide, reference compound], the IC50 was > 10000 nM. Same read-out and setting: for `OC(CNc1cc(-c2ccccc2)ncn1)c1ccccc1` (stereo not shown) [CE3, 1-Phenyl-2-(6-phenyl-pyrimidin-4-ylamino)-ethanol, reference compound] the value was > 10000 nM; for `OC(CNc1cc(-c2c(F)cccc2F)ncn1)c1ccccc1` (stereo not shown) [CE4, 2-[6-(2,6-Difluoro-phenyl)-pyrimidin-4-ylamino]-1-phenyl-ethanol, reference compound], > 10000 nM. Same read-out and setting: the value for `OC(CNc1cc(-c2cccs2)ncn1)c1ccccc1` (stereo not shown) [CE5, 1-Phenyl-2-(6-thiophen-2-yl-pyrimidin-4-ylamino)-ethanol, reference compound] was > 10000 nM. For `Oc1ccc(-c2cc(NCC(O)c3ccccc3)ncn2)cc1` (stereo not shown) [CE6, 4-[6-(2-Hydroxy-2-phenyl-ethylamino)-pyrimidin-4-yl]-phenol, reference compound], the half-inhibitory concentration (IC50) was 7000 nM.

Turning to `Nc1cccc(-c2cc(NCC(O)c3ccccc3)ncn2)c1` (stereo not shown) [CE8, 2-[6-(3-Amino-phenyl)-pyrimidin-4-ylamino]-1-phenyl-ethanol, reference compound], the IC50 was > 10000 nM.

The target of a further test is T2, Rat FAAH-1 (Rattus norvegicus, UniProt P97612).
T2 sequence (P97612 1-579): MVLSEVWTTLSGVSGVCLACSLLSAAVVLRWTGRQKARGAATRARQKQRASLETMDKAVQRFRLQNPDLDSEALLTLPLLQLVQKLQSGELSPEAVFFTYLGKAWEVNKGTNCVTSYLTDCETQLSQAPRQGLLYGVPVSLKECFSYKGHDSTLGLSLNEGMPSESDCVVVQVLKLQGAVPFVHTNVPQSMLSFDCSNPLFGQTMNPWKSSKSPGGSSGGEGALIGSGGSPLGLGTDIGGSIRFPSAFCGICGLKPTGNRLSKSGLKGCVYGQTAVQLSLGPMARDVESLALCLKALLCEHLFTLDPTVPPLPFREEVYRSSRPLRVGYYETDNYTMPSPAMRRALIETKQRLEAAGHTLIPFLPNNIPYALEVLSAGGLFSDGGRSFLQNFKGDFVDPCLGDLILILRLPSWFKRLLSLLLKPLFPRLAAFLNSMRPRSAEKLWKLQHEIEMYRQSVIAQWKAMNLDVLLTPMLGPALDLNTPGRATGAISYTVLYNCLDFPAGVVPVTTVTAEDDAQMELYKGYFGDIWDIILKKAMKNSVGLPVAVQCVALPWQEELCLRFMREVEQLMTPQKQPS
Kind of test: Assay Method 2: rat FAAH-1 assay, 3H-anandamide hydrolysis in homogenate of SK-N-MC cells transfected with rat FAAH.
Details: not given
Take `OC(CNc1cc(-c2c(C(F)(F)F)cccc2C(F)(F)F)ncn1)c1ccccc1` (stereo not shown) [CE1, 2-[6-(2,6-Bis-trifluoromethyl-phenyl)-pyrimidin-4-ylamino]-1-phenyl-ethanol, reference compound]: the 50% inhibitory concentration (IC50) was > 10000 nM. As to `Cc1cc(-c2cc(NC[C@H](O)c3ccccc3)ncn2)cnc1F` [Example 75, (1R)-2-{[6-(6-Fluoro-5-methylpyridin-3-yl)pyrimidin-4-yl]amino}-1-phenylethanol], the IC50 was > 10000 nM.

As to `O[C@@H](CNc1cc(-c2ccc(C(F)(F)F)c(Cl)c2)nc(N2CCC2)n1)c1ccccc1` [Example 161, (1R)-2-({2-Azetidin-1-yl-6-[3-chloro-4-(trifluoromethyl)phenyl]pyrimidin-4-yl}amino)-1-Phenylethanol trifluoroacetic acid salt], the IC50 amounted to 580 nM.

The test is the same for the next values; noted with them: read-out: Assay 2 IC50; Table 2, Comparative Examples; rat FAAH-1.
For the molecule `CC(=O)Nc1cccc(-c2cc(NCC(O)c3ccccc3)ncn2)c1` (stereo not shown) [CE2, N-{3-[6-(2-Hydroxy-2-phenyl-ethylamino)-pyrimidin-4-yl]-phenyl}-acetamide, reference compound], the IC50 was > 10000 nM. As to `OC(CNc1cc(-c2c(F)cccc2F)ncn1)c1ccccc1` (stereo not shown) [CE4, 2-[6-(2,6-Difluoro-phenyl)-pyrimidin-4-ylamino]-1-phenyl-ethanol, reference compound], the IC50 was > 10000 nM. Still for that read-out and setting: for `OC(CNc1cc(-c2cccs2)ncn1)c1ccccc1` (stereo not shown) [CE5, 1-Phenyl-2-(6-thiophen-2-yl-pyrimidin-4-ylamino)-ethanol, reference compound] the value was > 10000 nM; for `Oc1ccc(-c2cc(NCC(O)c3ccccc3)ncn2)cc1` (stereo not shown) [CE6, 4-[6-(2-Hydroxy-2-phenyl-ethylamino)-pyrimidin-4-yl]-phenol, reference compound], > 10000 nM.
